In US10206862B2, “Supplement to support healthy hair, skin, and nails” (priority 2016, dated 2019):

How the values were obtained:
[1] = test system: keratinocytes; test: Reduction in ATP depletion after peroxide stress (CellTiter-Glo); type: cell-based; conditions: 1 hour treatment, net luminescence = treatment counts minus vehicle control counts
Protocol: Hydrogen peroxide is a well-known ROS and is commonly used as a model to analyze the effects of various ROS. In this test, keratinocytes were cultured (passage <8) in T150 flasks using EpiLife® medium (Calcium Free and Phenol Red Free, supplemented with penicillin/streptomycin and keratinocytes growth supplement, Invitrogen™ cat# MEPICFPRF500). The keratinocytes were then plated in 24 well plates, 40,000 cells/well, 1 ml media. After 24 hours, the keratinocytes were treated with organic astaxanthin and astaxanthin in combination with Digestive Support Blend (see Example 1 above), Stress and Energy Support Blend (see Example 1 above), Reishi, or biotin for 1 hour. The keratinocytes were washed in PBS and ATP levels were measured using the CellTiter-Glo® Luminescent Cell Viability Assay (available from Promega, cat# G7571/2/3) per manufacturer's directions. Luminescence was measured on a SpectraMax® M3 (available from Molecular Devices, Sunnyvale, Calif., USA). Net luminescence (or net ATP) is calculated by subtracting the luminescence counts from the vehicle control from the luminescence counts from the treatment groups.

[2] = test system: PGE2 release from UVB stressed keratinocytes; test: PGE2 assay in UVB stressed keratinocytes; type: cell-based; conditions: telomerized human keratinocytes, UVB 15 mJ/cm^2, 24 hours treatment; PGE2 (pg/mL) normalized to ATP; FIG. 3
Protocol: Telomerized human keratinocytes are propgated in EpiLife® Media in CO2-incubator at 37° C. in T150 flasks (available from Corning®, Corning, N.Y., USA). […] The plates were incubated another 2 days until cell confluency reaches >80%. At this point, the cells were irradiated with a Bio-Sun™ UV with UVB light for a dose of 15 mJ/cm^2. The media was then switched with fresh medium prepared with the treatments. The cells were then incubated for 24 hours before harvest. At harvest, the media supernatant was collected and transferred to a deep well plate and frozen in −80° C. for later determination of PGE2 levels. PGE2 levels were measured from the media supernatants using the PGE2 Assay kit (available from Cisbio™, Bedford, Mass.) per manufacturer's directions. PGE2 levels here were normalized to the ATP measurements such that the final PGE2 values were recorded as PGE2 (pg/mL)/ATP level treatment compared to control. Typically, each data point is the average of 4 replicates.

[3] = test system: Antioxidant Response Element (ARE); test: ARE reporter assay (ARE-32 luciferase reporter cell line); type: cell-based, rat; conditions: ARE32 (MCF7) luciferase reporter cells, 24 hours treatment; Nrf2 antioxidant response activation
Protocol: ARE activation was quantitated using the ARE-32 reporter cell line available from CXR-Biosciences as described in the ARE Assay below. ARE32 is a stable MCF7 cell line containing pGL8x-ARE (8 copies of the rat GST ARE linked to the luciferase gene) and pCDNA3.1, which contains the neomycin selectable marker. Selection was performed in the presence of G418 and resistant clones were isolated. Clones were screened for induction of luciferase in response to tBHQ (tert-Butylhydroquinone). The ARE32 cells are maintained routinely in the DMEM (phenol red free) containing: 10% FBS, 50 units/ml penicillin & 50 μg/ml streptomycin, 0.8 mg/ml G418. […] Cells were frozen in medium that contains 90% FBS and 10% dimethyl sulfoxide (DMSO). In a 96 well-plate, seed 1×10^4 cells/well in 100 μl DMEM containing 50 units/ml penicillin, 50 μg/ml streptomycin, 0.8 mg/ml G418 and 10% FBS. Next, incubate the cells at 37° C. in a 5% CO2 incubator for 24 hrs, and then replace the medium with 100 μl fresh media. Treat with test compounds at 2 μl per well, positive control was 25 μM TBHQ. (10 mM tBHQ of stock solution freshly prepared in DMSO). Add 100 μl of media after treatment for a final assay volume of 200 μL. Incubate the cells at 37° C. in CO2 incubator for another 24 hours. […]

Row | SMILES | Net ATP [1] | PGE2 release from keratinocytes [2] | ARE - Fold Over Control [3] [Fold Over Control]
1 | O=C(O)CCCC[C@@H]1SC[C@@H]2NC(=O)N[C@@H]21 [Biotin] | 947 | reduce PGE2 | 1.71
2 | CC1=C(/C=C/C(C)=C/C=C/C(C)=C/C=C/C=C(C)/C=C/C=C(C)/C=C/C2=C(C)C(=O)[C@@H](O)CC2(C)C)C(C)(C)C[C@H](O)C1=O [Organic Astaxanthin, Astaxanthin] | 1096 | reduce PGE2 | 2.65
